tested on: HCV genotype 1a replicon cell line; assay: HCV Genotype 1a Replicon Assay; type: cell-based; details: Hepatitis C virus, Huh7.5 cell background, NS3-specific protease activity in lysates, 48 or 72 hours, read-out: pEC50 Genotype 1a (converted)
Experimental: Assay 2: HCV Genotype 1a Replicon Assay
The HCV genotype 1a replicon cell line was obtained from Apath LLC (APC89; Huh7.5 cell background). This subgenomic replicon contains the N-terminus of the HCV core protein fused to the neomycin-resistance selectable marker. The EMCV IRES lies downstream and drives expression of the non-structural proteins NS3-NS5B. Compound potencies were determined using the NS3-specific protease activity in lysates as a measurement of compound inhibition of replicon levels.
Cells were grown at 37° C. in a 5% CO2 humidified incubator in DMEM (Invitrogen) with 10% FBS (HyClone), 1×NEAA (Invitrogen), 1× Pen-Strep (Invitrogen), and 850 μg/mL G418 (Invitrogen). On day 1 of the assay, cells were plated at 15,000 cells/well in black 96-well tissue culture plates (Costar) in 200 μL media lacking G418. […] Compounds were initially diluted in DMSO and then diluted another 200× in media to bring the final DMSO concentration down to 0.5%. The cells were incubated with test compounds for 48 or 72 hours. At the end of the incubation period, media and compound were removed from the plates.
To determine the NS3-specific protease activity in lysates, the cells were lysed at room temperature in 50 μL/well of 50 mM Hepes pH 7.5, 150 mM NaCl, 15% Glycerol, 0.15% Triton X-100, 10 mM DTT for 20 minutes with shaking. 50 μL of an NS3/4a protease-specific FRET substrate (Anaspec RET S1 Cat#22991) was then added to the wells at a final concentration of 15 μM. The plates were incubated at 37° C. for 20 minutes, which corresponds to a timepoint at which the protease activity is still in the linear phase. Protease activity was determined by measuring fluorescence (Excitation: 340 nm; Emission: 509 nm).
To analyze the data, the fluorescence was plotted vs. the compound concentration, and EC50 values were determined from a 4-parameter robust fit model using GraphPad Prism software.

First: COC(=O)N[C@H](C(=O)N1CC(C2CC2)=C[C@H]1c1nc(-c2ccc(-c3ccc(C(=O)Nc4ccc(N5CCN(C(=O)C(C)(C)C)C[C@H]5C)nc4)cc3OC(F)(F)F)cc2)c[nH]1)C(C)C [Example 12, ((S)-1-{(S)-4-Cyclopropyl-2-[4-(4′-{6-[(R)-4-(2,2-dimethyl-propionyl)-2-methyl-piperazin-1-yl]-pyridin-3-ylcarbamoyl}-2′-trifluoromethoxy-biphenyl-4-yl)-1H-imidazol-2-yl]-2,5-dihydro-pyrrole-1-carbonyl}-2-methyl-propyl)-carbamic acid methyl ester]
Second: COC(=O)N[C@H](C(=O)N1CC(C2CC2)=C[C@H]1c1nc(-c2ccc(-c3cc(Cl)c(NC(=O)c4ccc(N5CCN(C(=O)C(C)(C)C)C[C@H]5C)nc4)cc3OC(F)(F)F)cc2)c[nH]1)C(C)C [Example 3, [(S)-1-((S)-2-{4-[5′-Chloro-4′-({6-[(R)-4-(2,2-dimethyl-propionyl)-2-methyl-piperazin-1-yl]-pyridine-3-carbonyl}-amino)-2′-trifluoromethoxy-biphenyl-4-yl]-1H-imidazol-2-yl}-4-cyclopropyl-2,5-dihydro-pyrrole-1-carbonyl)-2-methyl-propyl]-carbamic acid methyl ester]
The EC50 of the first is higher: 0.1 to 1 nM for the first, < 0.1 nM for the second.

`COC(=O)N[C@H](C(=O)N1CC(C)=C[C@H]1c1nc(-c2ccc(-c3ccc(C(=O)Nc4ccc(N5CC(C)N(C(=O)CNC(C)=O)C[C@H]5C)nc4)cc3OC(F)(F)F)cc2)c[nH]1)C(C)C` (stereo partly drawn) [Example 2-5] and `CNC(=O)N1C[C@@H](C)N(c2ccc(NC(=O)c3ccc(-c4ccc(-c5c[nH]c([C@@H]6C=C(C)CN6C(=O)[C@@H](NC(=O)OC)C(C)C)n5)cc4)c(OC(F)(F)F)c3)cn2)CC1C` (stereo partly drawn) [Example 2-2] fall in the same range of EC50: 0.1 to 1 nM for the first, 0.1 to 1 nM for the second.

First: COC(=O)N[C@H](C(=O)N1C[C@H]2[C@@H]([C@H]1c1nc(-c3ccc(-c4cc(Cl)c(NC(=O)c5ccc(N6CCN(C(=O)C(C)(C)C)C[C@H]6C)nc5)cc4OC(F)(F)F)cc3)c[nH]1)C2(C)C)C1CCOCC1 [Example 5-12]
Second: COC(=O)N[C@H](C(=O)N1[C@@H]2CC[C@@H](C2)[C@H]1c1nc(-c2ccc(-c3cc(Cl)c(NC(=O)c4ccc(N5CCN(C(=O)C(C)(C)C)C[C@H]5C)nc4)cc3OC(F)(F)F)cc2)c[nH]1)C1CCOCC1 [Example 5-4]
The EC50 of the first is higher: 0.1 to 1 nM for the first, < 0.1 nM for the second.

`COC(=O)N[C@H](C(=O)N1C[Si](C)(C)C[C@H]1c1nc(-c2ccc(-c3cc(Cl)c(NC(=O)c4ccc(N5CCN(C(=O)C(C)(C)C)C[C@H]5C)nc4)cc3OC(F)(F)F)cc2)c[nH]1)C(C)C` [Example 6, [(S)-1-((R)-5-{4-[5′-Chloro-4′-({6-[(R)-4-(2,2-dimethyl-propionyl)-2-methyl-piperazin-1-yl]-pyridine-3-carbonyl}-amino)-2′-trifluoromethoxy-biphenyl-4-yl]-1H-imidazol-2-yl}-3,3-dimethyl-[1,3]azasilolidine-1-carbonyl)-2-methyl-propyl]-carbamic acid methyl ester] and `COC(=O)N[C@H](C(=O)N1CC(C)CC[C@H]1c1nc(-c2ccc(-c3cc(Cl)c(NC(=O)c4ccc(N5CCN(C(=O)C(C)(C)C)C[C@H]5C)nc4)cc3OC(F)(F)F)cc2)c[nH]1)C(C)C` (stereo partly drawn) [Example 1-5] fall in the same range of EC50: 0.1 to 1 nM for the first, 0.1 to 1 nM for the second.

`COC(=O)N[C@H](C(=O)N1CC(C)=C[C@H]1c1nc(-c2ccc(-c3cc(Cl)c(NC(=O)c4ccc(N5CCN(C(=O)[C@H]6CC6(C)C)C[C@H]5C)nc4)cc3OC(F)(F)F)cc2)c[nH]1)C(C)C` [Example 2, ((S)-1-{(S)-2-[4-(5′-Chloro-4′-{[6-((R)-4-(S)-2,2-dimethylcyclopropanecarbonyl-2-methyl-piperazin-1-yl)-pyridine-3-carbonyl]-amino}-2′-trifluoromethoxy-biphenyl-4-yl)-1H-imidazol-2-yl]-4-methyl-2,5-dihydro-pyrrole-1-carbonyl}-2-methyl-propyl)-carbamic acid methyl ester] and `COC(=O)N[C@H](C(=O)N1CC(C)=C[C@H]1c1nc(-c2ccc(-c3cc(Cl)c(NC(=O)c4ccc(N5CCN(C(=O)C(C)(C)C)C[C@H]5C)nc4)cc3OC(F)(F)F)cc2)c[nH]1)C(C)C` [Example 1, [(S)-1-((S)-2-{4-[5′-Chloro-4′-({6-[(R)-4-(2,2-dimethyl-propionyl)-2-methyl-piperazin-1-yl]-pyridine-3-carbonyl}-amino)-2′-trifluoromethoxy-biphenyl-4-yl]-1H-imidazol-2-yl}-4-methyl-2,5-dihydro-pyrrole-1-carbonyl)-2-methyl-propyl]-carbamic acid methyl ester] cannot be ordered by EC50: < 0.1 nM for the first, < 0.1 nM for the second.

`[2H]C([2H])([2H])C1(C([2H])([2H])[2H])CC1C(=O)N1C[C@@H](C)N(c2ccc(NC(=O)c3ccc(-c4ccc5c(ccc6[nH]c([C@@H]7C[C@H](C)CN7C(=O)[C@@H](NC(=O)OC)C(C)C)nc65)c4)c(OC(F)(F)F)c3)cn2)CC1C` (stereo partly drawn) [Example 3-8] and `COC(=O)N[C@H](C(=O)N1C[C@@H](C)C[C@H]1c1nc2c(ccc3cc(-c4ccc(C(=O)Nc5ccc(N6CC(C)N(C(=O)C7CC7)C[C@H]6C)nc5)cc4OC(F)(F)F)ccc32)[nH]1)C(C)C` (stereo partly drawn) [Example 3-11] cannot be ordered by EC50: < 0.1 nM for the first, < 0.1 nM for the second.

`COC(=O)N[C@H](C(=O)N1[C@@H]2C[C@@H]2CC[C@H]1c1nc(-c2ccc(-c3cc(Cl)c(NC(=O)c4ccc(N5CCN(C(=O)[C@H]6CC6(C)C)C[C@H]5C)nc4)cc3OC(F)(F)F)cc2)c[nH]1)C(C)C` [Example 5-8] and `COC(=O)N[C@H](C(=O)N1[C@@H]2C[C@@H]2CC[C@H]1c1nc(-c2ccc(-c3cc(Cl)c(NC(=O)c4ccc(N5CCN(C(=O)C(C)(C)CO)C[C@H]5C)nc4)cc3OC(F)(F)F)cc2)c[nH]1)C(C)C` [Example 5-9] cannot be ordered by EC50: < 0.1 nM for the first, < 0.1 nM for the second.

`COC(=O)N[C@H](C(=O)N1[C@@H]2CC[C@@H](C2)[C@H]1c1nc(-c2ccc(-c3cc(Cl)c(NC(=O)c4ccc(N5CCN(C(=O)C(C)(C)C)C[C@H]5C)nc4)cc3OC(F)(F)F)cc2)c[nH]1)C(C)C` [Example 5-5] and `COC(=O)N[C@H](C(=O)N1C[C@H]2[C@@H]([C@H]1c1nc(-c3ccc(-c4cc(Cl)c(NC(=O)c5ccc(N6CCN(C(=O)C(C)(C)C)C[C@H]6C)nc5)cc4OC(F)(F)F)cc3)c[nH]1)C2(C)C)C(C)C` [Example 5-11] fall in the same range of EC50: 0.1 to 1 nM for the first, 0.1 to 1 nM for the second.

`COC(=O)N[C@H](C(=O)N1C[C@@H](C)CC[C@H]1c1nc(-c2ccc(-c3cc(Cl)c(NC(=O)c4ccc(N5CCN(C(=O)C(C)(C)CO)C[C@H]5C)nc4)cc3OC(F)(F)F)cc2)c[nH]1)C(C)C` [Example 11, [(S)-1-((2S,5S)-2-{4-[5′-Chloro-4′-({6-[(R)-4-(3-hydroxy-2,2-dimethyl-propionyl)-2-methyl-piperazin-1-yl]-pyridine-3-carbonyl}-amino)-2′-trifluoromethoxy-biphenyl-4-yl]-1H-imidazol-2-yl}-5-methyl-piperidine-1-carbonyl)-2-methyl-propyl]-carbamic acid methyl ester] and `COC(=O)N[C@H](C(=O)N1CC(C)=C[C@H]1c1nc(-c2ccc(-c3ccc(C(=O)Nc4ccc(N5CC(C)N(C(=O)C(C)(C)C)C[C@H]5C)nc4)cc3OC(F)(F)F)cc2)c[nH]1)C(C)C` (stereo partly drawn) [Example 2-3] fall in the same range of EC50: 0.1 to 1 nM for the first, 0.1 to 1 nM for the second.

`COC(=O)N[C@H](C(=O)N1CC(C)=C[C@H]1c1nc(-c2ccc(-c3ccc(C(=O)Nc4ccc(N5CC(C)N(C(=O)C6(O)CC6(C)C)C[C@H]5C)nc4)cc3OC(F)(F)F)cc2)c[nH]1)C(C)C` (stereo partly drawn) [Example 2-6] and `COC(=O)N[C@H](C(=O)N1CC(C)=C[C@H]1c1nc(-c2ccc(-c3ccc(C(=O)Nc4ccc(N5CC(C)N(C(=O)C6CC6)C[C@H]5C)nc4)cc3OC(F)(F)F)cc2)c[nH]1)C(C)C` (stereo partly drawn) [Example 2-1] fall in the same range of EC50: 0.1 to 1 nM for the first, 0.1 to 1 nM for the second.

`COC(=O)N[C@H](C(=O)N1CC(C)=C[C@H]1c1nc(-c2ccc(-c3ccc(C(=O)Nc4ccc(N5CC(C)N(C(=O)C6CC6(Cl)Cl)C[C@H]5C)nc4)cc3OC(F)(F)F)cc2)c[nH]1)C(C)C` (stereo partly drawn) [Example 2-7] and `COC(=O)N[C@H](C(=O)N1CC(C)=C[C@H]1c1nc(-c2ccc(-c3ccc(C(=O)Nc4ccc(N5CC(C)N(C(=O)C(C)(C)NC(=O)C6CCC6)C[C@H]5C)nc4)cc3OC(F)(F)F)cc2)c[nH]1)C(C)C` (stereo partly drawn) [Example 2-9] fall in the same range of EC50: 0.1 to 1 nM for the first, 0.1 to 1 nM for the second.

`COC(=O)N[C@H](C(=O)N1C[C@@H](C)C[C@H]1c1nc2c(ccc3cc(-c4ccc(C(=O)Nc5ccc(N6CC(C)N(C(=O)N(C)C)C[C@H]6C)nc5)cc4OC(F)(F)F)ccc32)[nH]1)C(C)C` (stereo partly drawn) [Example 3-10] and `COC(=O)N[C@H](C(=O)N1C[C@@H](C)C[C@H]1c1nc2c(ccc3cc(-c4ccc(C(=O)Nc5ccc(N6CC(C)N(C(=O)C(C)(C)C)C[C@H]6C)nc5)cc4OC(F)(F)F)ccc32)[nH]1)C(C)C` (stereo partly drawn) [Example 3-9] cannot be ordered by EC50: < 0.1 nM for the first, < 0.1 nM for the second.
